Read-outs that look alike come from different tables or passages of the source.

One series can be described thus: Solubility in water. The format is physicochemical.
The next series concerns THP-1. Put plainly: Activation of cholesterol efflux (BODIPY-cholesterol) in differentiated THP1 macrophages. Format: cell-based, human. The protocol:
The ability of anti-MSR1-LXR agonist ADCs to activate cholesterol efflux in a human macrophage cell line (THP-1; ATTC Catalog #TIB-202) were assessed using a fluorescent cholesterol analog. […] Cells were differentiated into macrophages by treatment with 100 nM Phorbol-12 myristate 13-acetate (Sigma, Catalog #P8139), which was added to the media (described above), for 96 hours. […] Percentage of BODIPY-cholesterol efflux was calculated using the following formula: [fluorescence in acceptor media/(fluorescence in acceptor media+fluorescence in cell lysate)]×100.

The subject of series [1] is T1, LXR.
T1 construct: EC50 (M); S/N; other: differentiate
Briefly: Cell-based LXR luciferase reporter assay, LXR agonists (Example 16a). Further details: species or system human. As to conditions: Table 5a; for EC50: differentiated THP-1/LXR-Luc cells, 48 h; for S/N: highest RLU on dose response curve / RLU in untreated wells. Here is the method: LXR agonists described herein were evaluated in a cell-based LXR responsive luciferase reporter assay. To generate the assay cell line, an LXR regulated luciferase reporter gene [Cignal Lenti LXR Reporter (luc) kit (Qiagen, Cat #CLS-001L)] was transduced into THP1 cells and the cells were selected for two weeks in puromycin. The lentivirus expresses the firefly luciferase gene under the control of a basal promoter and tandem repeats of the LXR transcriptional response element. The resulting cell line is referred to as THP1/LXR-Luc cells. For the assay, THP1/LXR-Luc cells were seeded onto 96-well plates at 40,000 cells/well in media containing RPMI supplemented with 10% FBS and penicillin/streptomycin and were then differentiated with 200 nM Phorbol Myristate Acetate (PMA) for 3 days. The media was subsequently removed and replaced with 80 μL of fresh media without PMA. Three-fold serial dilutions of free payloads were prepared in 100% DMSO, transferred to fresh growth media, and 20 μL were added to the cells at a final constant DMSO concentration of 0.2% and free payloads at final concentrations ranging from 100 nM to 0.015 nM. The last well in the plate served as blank control containing only the media and 0.2% DMSO (untreated well) and was plotted as a continuation of the 3-fold serial dilution. Forty-eight hours later, luciferase activity was determined after the addition of One-Glo™ reagent (Promega, Cat #E6130) to each well. Relative light units (RLUs) were measured on an Envision luminometer (PerkinElmer) and EC50 values were determined using a four-parameter logistic equation over a 10-point dose response curve (GraphPad Prism). The signal to noise (S/N) was determined by taking the ratio of the highest RLU on the dose response curve to the RLU in the untreated wells.

A short description of series [2]: Stability of isolated compound in buffer. As to conditions: HCl salt; even under basic buffer (pH>7). Format: physicochemical. Here is the method:
To a solution compound 141 (0.30 g, 0.33 mmol) in acetonitrile (5 mL) was added a solution of HCl in dioxane (4 N, 3 mL). The reaction mixture was stirred at room temperature for 3 hours until Boc was totally removed according to LCMS. The volatiles were removed, and the residue was purified by reversed phase flash chromatography (0-100% acetonitrile in water) to give compound 142 as HCl salt (0.19 g, 73% yield), as a white solid, which was not stable, even under basic buffer (pH>7). ESI m/z: 717.2 (M+H)^+.

Series [3] concerns T1, LXR. Put plainly: THP1/LXR-Luc reporter assay, anti-MSR1 LXR agonist ADCs (Example 17). The format is cell-based, human. As to conditions: differentiated THP-1/LXR-Luc cells, Table 6.
The mark [4] stands for this setting: Homo sapiens, THP-1, after 24 hours, read-out: cholesterol efflux EC50.
The mark [5] stands for this setting: Homo sapiens, differentiated THP-1 macrophages, 24-hour treatment, Table 8, read-out: Cholesterol Efflux activation EC50.

Consider `CC(C)[C@H](NC(=O)[C@@H](CCCCNC(=O)COC1CCCCCc2c1nnn2CC1OC2OC3C(CO)OC(OC4C(CO)OC(OC5C(CO)OC(OC6C(CO)OC(OC7C(CO)OC(OC1C(O)C2O)C(O)C7O)C(O)C6O)C(O)C5O)C(O)C4O)C(O)C3O)NC(=O)CCOCCOCCOCCOCCNC(=O)CCC(=O)N1Cc2ccccc2C#Cc2ccccc21)C(=O)N[C@@H](CCCNC(N)=O)C(=O)Nc1ccc2c(c1)[C@@]1(C)CCC[C@](C)(C(=O)NC(=O)[C@@]3(C)CCC[C@]4(C)c5cc(N)ccc5CC[C@@H]34)[C@@H]1CC2` (stereo partly drawn) [LP2], for which, in “Solubility in water”, the solubility is below 100 µg/mL.
For the molecule `C[C@]1(C(=O)NC(=O)[C@@]2(C)CCC[C@]3(C)c4cc(O)ccc4CC[C@@H]23)CCC[C@]2(C)c3cc(N)ccc3CC[C@@H]12` [P1, (1S,4aS,10aR)-N-[(1S,4aS,10aR)-6-Amino-1,4a-dimethyl-1,2,3,4,4a,9,10,10a-octahydrophenanthrene-1-carbonyl]-6-hydroxy-1,4a-dimethyl-1,2,3,4,4a,9,10,10a-octahydrophenanthrene-1-carboxamide], the figures for the EC50 in the series on THP-1 (setting [4]), in the series with THP-1 (setting [5]) and in the series on LXR [1] were 0.02 nM, 0.02 nM and 0.191 nM, respectively. In the series on LXR [1], the S/N turned out to be 11.9.
`C[C@]1(C(=O)NC(=O)[C@@]2(C)CCC[C@]3(C)c4cc(N)ccc4CC[C@@H]23)CCC[C@]2(C)c3cc(N)ccc3CC[C@@H]12` [P2, (1S,4aS,10aR)-6-Amino-N-((1S,4aS,10aR)-6-amino-1,4a-dimethyl-1,2,3,4,4a,9,10,10a-octahydrophenanthrene-1-carbonyl)-1,4a-dimethyl-1,2,3,4,4a,9,10,10a-octahydrophenanthrene-1-carboxamide]: the EC50 stood at 0.014 nM in the series with THP-1 (setting [4]), 0.014 nM with THP-1 (setting [5]) and 0.45 nM with LXR [1]. In the series on LXR [1], this molecule came in with a S/N of 13.1.
Take `C[C@H](N)C(=O)Nc1ccc2c(c1)[C@@]1(C)CCC[C@](C)(C(=O)NC(=O)[C@@]3(C)CCC[C@]4(C)c5cc(N)ccc5CC[C@@H]34)[C@@H]1CC2` [P13, (1S,4aS,10aR)-N-[(1S,4aS,10aR)-6-amino-1,4a-dimethyl-1,2,3,4,4a,9,10,10a-octahydrophenanthrene-1-carbonyl]-6-[(2S)-2-aminopropanamido]-1,4a-dimethyl-1,2,3,4,4a,9,10,10a-octahydrophenanthrene-1-carboxamide]: in the series on LXR [1], the midpoint of the response, the EC50, lay at 0.0788 nM and the S/N is given as 11.9.
In the series on LXR [1], `C[C@]1(C(=O)NC(=O)[C@@]2(C)CCC[C@]3(C)c4cc(NC(=O)CO)ccc4CC[C@@H]23)CCC[C@]2(C)c3cc(N)ccc3CC[C@@H]12` [P14, (1S,4aS,10aR)-N-[(1S,4aS,10aR)-6-(2-hydroxyacetamido)-1,4a-dimethyl-1,2,3,4,4a,9,10,10a-octahydrophenanthrene-1-carbonyl]-6-amino-1,4a-dimethyl-1,2,3,4,4a,9,10,10a-octahydrophenanthrene-1-carboxamide] gave an EC50 of 0.152 nM and a S/N of 10.8.
Taken in the same sequence, the figures for `CC(C)(C)OC(=O)Nc1ccc2c(c1)[C@@]1(C)CCC[C@](C)(C(=O)NC(=O)[C@@]3(C)CCC[C@]4(C)c5cc(O)ccc5CC[C@@H]34)[C@@H]1CC2` [P15, tert-Butyl N-[(4bS,8S,8aR)-8-({[(1S,4aS,10aR)-6-hydroxy-1,4a-dimethyl-1,2,3,4,4a,9,10,10a-octahydrophenanthren-1-yl]formamido}carbonyl)-4b,8-dimethyl-4b,5,6,7,8,8a,9,10-octahydrophenanthren-3-yl]carbamate] were 72.9 nM and 8.8.
In the case of `C[C@H](NC(=O)[C@@H](N)CCC(=O)O)C(=O)Nc1ccc2c(c1)[C@@]1(C)CCC[C@](C)(C(=O)NC(=O)[C@@]3(C)CCC[C@]4(C)c5cc(O)ccc5CC[C@@H]34)[C@@H]1CC2` [P16, (4S)-4-Amino-4-{[(1S)-1-{[(4bS,8S,8aR)-8-({[(1S,4aS,10aR)-6-hydroxy-1,4a-dimethyl-1,2,3,4,4a,9,10,10a-octahydrophenanthren-1-yl]formamido}carbonyl)-4b,8-dimethyl-4b,5,6,7,8,8a,9,10-octahydrophenanthren-3-yl]carbamoyl}ethyl]carbamoyl}butanoic acid], in the series on LXR [1], the EC50 was determined as 0.508 nM and the S/N amounted to 11.5.
Taken in the same sequence, the figures for `C[C@]1(C(=O)NC(=O)[C@@]2(C)CCC[C@]3(C)c4cc(NC(=O)CO)ccc4CC[C@@H]23)CCC[C@]2(C)c3cc(O)ccc3CC[C@@H]12` [P17, (1S,4aS,10aR)-N-[(1S,4aS,10aR)-6-(2-hydroxyacetamido)-1,4a-dimethyl-1,2,3,4,4a,9,10,10a-octahydrophenanthrene-1-carbonyl]-6-hydroxy-1,4a-dimethyl-1,2,3,4,4a,9,10,10a-octahydrophenanthrene-1-carboxamide] were 1.03 nM and 12.5.
Taken in the same sequence, the figures for `C[C@]1(C(=O)NC(=O)[C@@]2(C)CCC[C@]3(C)c4cc(NC(=O)COCNC(=O)CN)ccc4CC[C@@H]23)CCC[C@]2(C)c3cc(O)ccc3CC[C@@H]12` [P18, (1S,4aS,10aR)-N-[(1S,4aS,10aR)-6-{2-[(2-aminoacetamido)methoxy]acetamido}-1,4a-dimethyl-1,2,3,4,4a,9,10,10a-octahydrophenanthrene-1-carbonyl]-6-hydroxy-1,4a-dimethyl-1,2,3,4,4a,9,10,10a-octahydrophenanthrene-1-carboxamide] were 2.78 nM and 11.5.
Take `C[C@]1(C(=O)NC(=O)[C@@]2(C)CCC[C@]3(C)c4cc(N)c(O)cc4CC[C@@H]23)CCC[C@]2(C)c3cc(O)ccc3CC[C@@H]12` [P19, (1S,4aS,10aR)-N-[(1S,4aS,10aR)-6-amino-7-hydroxy-1,4a-dimethyl-1,2,3,4,4a,9,10,10a-octahydrophenanthrene-1-carbonyl]-6-hydroxy-1,4a-dimethyl-1,2,3,4,4a,9,10,10a-octahydrophenanthrene-1-carboxamide]: in the series on LXR [1], the EC50 is 0.564 nM and the S/N was found to be 11.4.
As to `CNCCN(CCOCCO)C(=O)Oc1ccc2c(c1)[C@@]1(C)CCC[C@](C)(C(=O)NC(=O)[C@@]3(C)CCC[C@]4(C)c5cc(N)ccc5CC[C@@H]34)[C@@H]1CC2.Cl.Cl` [compound 142, (4bS,8S,8aR)-8-((1S,4aS,10aR)-6-Amino-1,4a-dimethyl-1,2,3,4,4a,9,10,10a-octahydrophenanthrene-1-carbonylcarbamoyl)-4b,8-dimethyl-4b,5,6,7,8,8a,9,10-octahydrophenanthren-3-yl 2-(2-hydroxyethoxy)ethyl(2-(methylamino)ethyl)carbamate], the stability result in series [2] is reported as “not stable”.

B1: H1H21234N-N297Q-LP1 (conjugate)
VH: QVQLQESGPGLVKPSETLSLTCTVTGGSISRNYWSWIRQPPGKGLEWIGYIYYSGSIDYNPSLKSRVTISVDTSKNQFSLKLSSMTAADTAVYYCARDRWNWKYGMDVWGQGTTVIVSS
VL: EIVLTQSPGTLSLSPGERATLSCRASQTVRNNYLAWYHQKPGQAPRLLIYGASSRATGIPDRFSGSGSGTDFTLTISRLEPEDFTVYYCHQYGNSPWTFGQGTKMEIKR
Consider B1, for which the EC50 in the series on THP-1 (after 24 hours, read-out: cholesterol efflux EC50) was 0.098 nM; in the series with LXR [3], 0.738 nM. For the same molecule, the S/N with LXR [3] worked out at 11.8.

(Values after patent US12209180B2, “Bis-octahydrophenanthrene carboxamide derivatives and protein conjugates thereof for use as LXR agonists” (REGENERON PHARMACEUTICALS, INC., priority 2018, dated 2025).)
